Tests used:
[1] = (§1) The drug is tested on Z-030 corresponding to mouse gut metagenome with ENA study accession number: PRJEB37062 and ENA sample accession number: ERS12561829 for biotransformation under anaerobic condition. The drug concentrations were measured over 9 timepoints collected between 0 and 24 hours of incubation by liquid-chromatography-coupled mass spectrometry (LC–MS); details: 2 µM
[2] = as §1, with “Z-026” for “Z-030”, “to” for “to mouse gut”, “ERS12561825” for “ERS12561829”; details: 2 µM
[3] = as §1, with “Z-021” for “Z-030”, “to” for “to mouse gut”, “ERS12561820” for “ERS12561829”; details: 2 µM
[4] = as §1, with “Z-009” for “Z-030”, “pig” for “mouse”, “ERS12561809” for “ERS12561829”; details: 2 µM
[5] = as §1, with “Z-002” for “Z-030”, “rabbit” for “mouse”, “ERS12561802” for “ERS12561829”; details: 2 µM
[6] = as §1, with “WLS-350” for “Z-030”, “human” for “mouse”, “ERS12561789” for “ERS12561829”; details: 2 µM
[7] = as §1, with “WLS-098” for “Z-030”, “human” for “mouse”, “ERS12561754” for “ERS12561829”; details: 2 µM
[8] = human gut metagenome, 24 h, 2 µM
[9] = human gut metagenome, 24 h, 2 µM; remark: listed apart in the source
[10] = human gut metagenome, 24 h, 2 µM; remark: listed apart in the source
[11] = human gut metagenome, 24 h, 2 µM; remark: listed apart in the source
[12] = human gut metagenome, 24 h, 2 µM; remark: listed apart in the source
[13] = human gut metagenome, 24 h, 2 µM; remark: listed apart in the source
[14] = human gut metagenome, 24 h, 2 µM; remark: listed apart in the source
[15] = as §1, with “WLS-052” for “Z-030”, “human” for “mouse”, “ERS12561747” for “ERS12561829”; details: 2 µM
[16] = as §1, with “WLS-027” for “Z-030”, “human” for “mouse”, “ERS12561744” for “ERS12561829”; details: 2 µM
[17] = as §1, with “Z-028” for “Z-030”, “ERS12561827” for “ERS12561829”; details: 2 µM
[18] = as §1, with “Z-023” for “Z-030”, “to” for “to mouse gut”, “ERS12561822” for “ERS12561829”; details: 2 µM
[19] = as §1, with “Z-008” for “Z-030”, “to” for “to mouse gut”, “ERS12561808” for “ERS12561829”; details: 2 µM
Further: call rule not given here.

Row | Structure (SMILES) | Bacterial Biotransformation [1] | Bacterial Biotransformation [2] | Bacterial Biotransformation [3] | Bacterial Biotransformation [4] | Bacterial Biotransformation [5] | Bacterial Biotransformation [6] | Bacterial Biotransformation [7] | Bacterial Biotransformation [8] | Bacterial Biotransformation [9] | Bacterial Biotransformation [10] | Bacterial Biotransformation [11] | Bacterial Biotransformation [12] | Bacterial Biotransformation [13] | Bacterial Biotransformation [14] | Bacterial Biotransformation [15] | Bacterial Biotransformation [16] | Bacterial Biotransformation [17] | Bacterial Biotransformation [18] | Bacterial Biotransformation [19]
1 | CN1CCc2cccc3c2[C@H]1Cc1ccc(O)c(O)c1-3 [APOMORPHINE] | Compound NOT metabolized | Compound NOT metabolized | Compound NOT metabolized | Compound metabolized | Compound NOT metabolized | Compound NOT metabolized | Compound NOT metabolized | Compound NOT metabolized | Compound NOT metabolized | Compound NOT metabolized | Compound NOT metabolized | Compound NOT metabolized | Compound NOT metabolized | Compound NOT metabolized | – | – | – | – | –
2 | OC(CCN1CCCCC1)(c1ccccc1)C1CC2C=CC1C2 (centres undefined) [BIPERIDEN] | – | – | – | – | – | Compound NOT metabolized | Compound metabolized | Compound NOT metabolized | Compound NOT metabolized | Compound NOT metabolized | Compound NOT metabolized | Compound metabolized | Compound NOT metabolized | Compound NOT metabolized | Compound NOT metabolized | Compound NOT metabolized | – | – | –
3 | CS(=O)(=O)O.O.O.O.O=C1Cc2cc(CCN3CCN(c4nsc5ccccc45)CC3)c(Cl)cc2N1 [ZIPRASIDONE MESYLATE] | – | – | – | – | – | Compound metabolized | Compound metabolized | Compound NOT metabolized | Compound NOT metabolized | Compound NOT metabolized | Compound NOT metabolized | Compound metabolized | Compound metabolized | Compound metabolized | Compound metabolized | Compound metabolized | – | – | –
4 | C#C[C@]1(O)CC[C@H]2[C@@H]3CCC4=Cc5oncc5C[C@]4(C)[C@H]3CC[C@@]21C [DANAZOL] | Compound metabolized | Compound metabolized | Compound metabolized | – | – | – | – | – | – | – | – | Compound metabolized | Compound metabolized | Compound metabolized | Compound metabolized | Compound metabolized | Compound metabolized | Compound metabolized | Compound metabolized
5 | Cc1nc2n(c(=O)c1CCN1CCC(c3noc4cc(F)ccc34)CC1)CCCC2O (centres undefined) [PALIPERIDONE] | Compound metabolized | Compound NOT metabolized | Compound metabolized | Compound metabolized | – | Compound metabolized | Compound metabolized | Compound metabolized | Compound metabolized | Compound metabolized | Compound metabolized | Compound metabolized | Compound metabolized | Compound metabolized | Compound metabolized | Compound metabolized | – | Compound metabolized | Compound NOT metabolized
6 | CC(=O)O[C@]1(C(C)=O)CC[C@H]2[C@@H]3C=C(Cl)C4=CC(=O)[C@@H]5C[C@@H]5[C@]4(C)[C@H]3CC[C@@]21C [CYPROTERONE ACETATE] | – | – | – | Compound metabolized | Compound metabolized | Compound metabolized | Compound metabolized | Compound metabolized | Compound metabolized | Compound metabolized | Compound metabolized | Compound metabolized | Compound metabolized | Compound metabolized | Compound metabolized | Compound metabolized | – | Compound metabolized | –
7 | CNC(=C[N+](=O)[O-])NCCSCc1csc(CN(C)C)n1 [NIZATIDINE] | Compound metabolized | Compound NOT metabolized | Compound NOT metabolized | Compound NOT metabolized | Compound NOT metabolized | Compound NOT metabolized | Compound metabolized | Compound NOT metabolized | Compound metabolized | Compound NOT metabolized | Compound metabolized | Compound metabolized | Compound NOT metabolized | Compound NOT metabolized | Compound NOT metabolized | Compound NOT metabolized | Compound NOT metabolized | Compound NOT metabolized | Compound NOT metabolized
8 | CN1C[C@H](C(=O)N[C@]2(C)O[C@@]3(O)[C@@H]4CCCN4C(=O)[C@H](Cc4ccccc4)N3C2=O)C=C2c3cccc4[nH]cc(c34)C[C@H]21.CN1C[C@H](C(=O)N[C@]2(C)O[C@@]3(O)[C@@H]4CCCN4C(=O)[C@H](Cc4ccccc4)N3C2=O)C=C2c3cccc4[nH]cc(c34)C[C@H]21.O=C(O)C(O)C(O)C(=O)O [ERGOTAMINE TARTRATE] | – | – | – | – | – | Compound metabolized | Compound metabolized | Compound NOT metabolized | Compound metabolized | Compound metabolized | Compound metabolized | Compound metabolized | – | – | Compound metabolized | Compound metabolized | – | – | Compound NOT metabolized
9 | CN1CCN(CC/C=C2/c3ccccc3Sc3ccc(S(=O)(=O)N(C)C)cc32)CC1 [THIOTHIXENE] | – | – | – | – | – | Compound metabolized | Compound metabolized | Compound metabolized | Compound metabolized | Compound metabolized | Compound metabolized | Compound metabolized | Compound metabolized | Compound metabolized | Compound metabolized | Compound metabolized | – | – | –
10 | Cc1ccc(/C(=C\CN2CCCC2)c2ccccn2)cc1 [TRIPROLIDINE] | – | Compound NOT metabolized | Compound NOT metabolized | Compound NOT metabolized | Compound NOT metabolized | Compound NOT metabolized | Compound NOT metabolized | Compound NOT metabolized | Compound NOT metabolized | Compound NOT metabolized | Compound NOT metabolized | Compound metabolized | Compound NOT metabolized | Compound NOT metabolized | Compound NOT metabolized | Compound NOT metabolized | Compound NOT metabolized | Compound NOT metabolized | Compound NOT metabolized
11 | COC(=O)C1=C(C)NC(C)=C(C(=O)OC(C)C)C1c1cccc2nonc12 (centres undefined) [ISRADIPINE] | – | – | – | – | Compound metabolized | Compound metabolized | Compound metabolized | Compound metabolized | Compound metabolized | Compound NOT metabolized | Compound NOT metabolized | Compound metabolized | Compound metabolized | Compound metabolized | Compound metabolized | Compound metabolized | – | – | –
12 | CN(C(=O)CN(CCO)CC(=O)N(C)C(C)(C)Cc1ccccc1)C(C)(C)Cc1ccccc1 [OXETHAZAINE] | – | – | – | – | – | Compound metabolized | Compound metabolized | Compound metabolized | Compound metabolized | Compound NOT metabolized | Compound metabolized | Compound metabolized | Compound metabolized | Compound metabolized | Compound metabolized | Compound metabolized | – | – | –
